Measurements taken from patent US20020193425A1, “Cancer chemopreventative compounds and compositions and methods of treating cancers” (priority 2001, published 2002).
Converted amounts (≈) assume the structure as drawn.

Legend:
Kasumi-1 = assay: Cytotoxicity, viability by Trypan blue exclusion; conditions: four days
Method: (§1) HL-60, K562, U937, Reh and Daudi cells were obtained from the American Type Culture Collection (Rockville, Md.). Kasumi-1, NB4, BV173, SUPB13, and RS4;11 cells were provided by the Section of Hematology/Oncology, University of Illinois College of Medicine, Chicago, Ill. All cell lines were maintained in suspension culture using RPMI 1640 medium supplemented with 10% heat-inactivated fetal bovine serum, 100 units of penicillin/ml and 100 μg of streptomycin/ml at 37° C. in a humidified atmosphere of 5% CO2 in air. All cells were routinely tested for mycoplasma contamination.
(§2) Cellular viability was monitored by Trypan blue exclusion. Inhibition of [3H]thymidine incorporation into DNA was determined to assess the level of cell proliferation as well as DNA synthesis inhibition. […] The filters were counted using a Microbeta™ liquid scintillation counter (Wallac, Turku, Finland) with scintillation fluid. Finally, the percentage of [3H]thymidine incorporation per 10^6 cells was calculated by dividing the dpm of sample-treated cells by the dpm of DMSO-treated cells.
(§3) ^aViability was determined by Trypan blue exclusion in duplicate samples. […] Results are expressed as median inhibitory cell concentrations of two independent experiments (±standard deviations).

[1] = Cytotoxicity, viability by Trypan blue exclusion; conditions: human, Kasumi-1 cells, Cytotoxicity (IC50, ng/ml), four days
Method: as §1, §2, §3

HL-60 = assay: Cell cycle effects, DNA content by flow cytometry; type: cell-based, human; conditions: Brusatol (25 ng/ml), 24 h
Method: About 10^6 cells from each sample were collected and washed twice with ice-cold PBS, fixed in 70% ethanol, and stored at 4° C. until analysis. The cells were stained with PI (50 μg/ml), treated with DNase-free RNase (10 μg/ml), and subjected to DNA content analysis using an EPICS Coulter flow cytometer. At least 10,000 cells were counted for each sample. The percentage of apoptotic cells was calculated by measuring the area under the sub-diploid (DNA <2 N) peak in the plot of cell number against cellular DNA content.
Cells were treated with solvent or brusatol (25 ng/ml) for 24 h, fixed in ethanol and stained with PI for flow cytometric analysis as described under “Materials and methods”. At least 10,000 cells were counted. Results are presented as the mean of triplicate samples (±standard deviation). G1=Gap1, S=Synthesis, G2/M=Gap2+Mitosis, Ap=sub-G1 apoptotic peak.

## COC(=O)[C@@]12OC[C@]34[C@H]([C@@H](O)[C@@H]1O)[C@@]1(C)CC(=O)C(O)=C(C)[C@@H]1C[C@H]3OC(=O)[C@H](OC(=O)C=C(C)C)[C@@H]24 [compound 1, brusatol]
Kasumi-1
  Cytotoxicity (IC50, ng/ml): 75 ± 5.1 ng/mL
[1]
  IC50 at 4 days: 0.05 to 0.1 µg/mL (≈ 0.0961 to 0.192 µM)
HL-60
  G1: G1 = 68.7 ± 0.9
  G2/M: G2/M = 18.3 ± 1.1
  S: S = 13.0 ± 1.0
